In PubChem BioAssay AID1963961 (Molecular Pharmacology Branch, DTP, NCI, 2024):

Tested on: K98450-129-R-PDC multicell spheroids, viability
Test: Anticancer human tumor K98450-129-R-PDC patient-derived colon adenocarcinoma cell line growth inhibition [PI3K]
Settings: for IC50: curve of first compound; for viability, T/C: stronger effect = lower value
Summary of the method: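 Multi-cell spheroids combine tumor cells with HUVEC and human MSCs, treated with targeted agents alone or with inavolisib, alpelisib, duvelisib or copanlisib. Concentrations fall in half-log steps from at or near clinical Cmax, or from 10 microM where Cmax is unknown; viability read-out.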

[1] = second compound 0.00316 µM, first compound 0.0316 µM
[2] = second compound 0.00316 µM, first compound 0.1 µM
[3] = second compound 0.01 µM, first compound 0.0316 µM
[4] = second compound 0.01 µM, first compound 0.1 µM
[5] = second compound 0.0316 µM, first compound 0.0316 µM
[6] = second compound 0.0316 µM, first compound 0.1 µM
[7] = second compound 0.1 µM, first compound 0.0316 µM
[8] = second compound 0.1 µM, first compound 0.1 µM
[9] = second compound 0.316 µM, first compound 0.0316 µM
[10] = second compound 0.316 µM, first compound 0.1 µM
[11] = second compound 1 µM, first compound 0.0316 µM
[12] = second compound 1 µM, first compound 0.1 µM
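Also: spheroids exposed to agents for seven days before read-out.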

`CC(C)NCC(C(=O)N1CCN(c2ncnc3c2C(C)CC3O)CC1)c1ccc(Cl)cc1` (stereo unspecified) + CC(Nc1ccc2c(c1)OCCn1cc(N3C(=O)OCC3C(F)F)nc1-2)C(N)=O was tested, and the IC50 (second compound 0.00316 µM) was over 10000 nM, the IC50 (second compound 0.01 µM) was over 10000 nM and the IC50 (second compound 0.0316 µM) was over 10000 nM. The IC50 (second compound 0.1 µM) was over 10000 nM, the IC50 (second compound 0.316 µM) was over 10000 nM and the IC50 (second compound 1 µM) was over 10000 nM. For the same molecule, the viability, T/C [1] was 111%, the viability, T/C [2] was 98% and the viability, T/C (second compound 0.00316 µM, first compound 0.316 µM) was 101%. The viability, T/C (second compound 0.00316 µM, first compound 1 µM) was 101%, the viability, T/C (second compound 0.00316 µM, first compound 3.16 µM) was 109% and the viability, T/C (second compound 0.00316 µM, first compound 10 µM) was 98.4%. For the same molecule, the viability, T/C [3] was 115%, the viability, T/C [4] was 96.1% and the viability, T/C (second compound 0.01 µM, first compound 0.316 µM) was 105%. It also gave a viability, T/C (second compound 0.01 µM, first compound 1 µM) of 98.1%, a viability, T/C (second compound 0.01 µM, first compound 3.16 µM) of 104% and a viability, T/C (second compound 0.01 µM, first compound 10 µM) of 102%. For the same molecule, the viability, T/C [5] was 109%, the viability, T/C [6] was 104% and the viability, T/C (second compound 0.0316 µM, first compound 0.316 µM) was 98.9%. The viability, T/C (second compound 0.0316 µM, first compound 1 µM) was 101%, the viability, T/C (second compound 0.0316 µM, first compound 3.16 µM) was 109% and the viability, T/C (second compound 0.0316 µM, first compound 10 µM) was 96.9%. It also gave a viability, T/C [7] of 96.2%, a viability, T/C [8] of 91.7% and a viability, T/C (second compound 0.1 µM, first compound 0.316 µM) of 101%. For the same molecule, the viability, T/C (second compound 0.1 µM, first compound 1 µM) was 102%, the viability, T/C (second compound 0.1 µM, first compound 3.16 µM) was 101% and the viability, T/C (second compound 0.1 µM, first compound 10 µM) was 96.2%. It also gave a viability, T/C [9] of 91%, a viability, T/C [10] of 90.5% and a viability, T/C (second compound 0.316 µM, first compound 0.316 µM) of 100%. It also gave a viability, T/C (second compound 0.316 µM, first compound 1 µM) of 99.2%, a viability, T/C (second compound 0.316 µM, first compound 3.16 µM) of 111% and a viability, T/C (second compound 0.316 µM, first compound 10 µM) of 94.2%. For the same molecule, the viability, T/C [11] was 85.2%, the viability, T/C [12] was 85.4% and the viability, T/C (second compound 1 µM, first compound 0.316 µM) was 96.8%. The viability, T/C (second compound 1 µM, first compound 1 µM) was 94.1%, the viability, T/C (second compound 1 µM, first compound 3.16 µM) was 100% and the viability, T/C (second compound 1 µM, first compound 10 µM) was 95.2%.

With `Cn1cnc2c(F)c(Nc3ccc(Br)cc3Cl)c(C(=O)NOCCO)cc21` + CC(Nc1ncnc2nc[nH]c12)c1cc2cccc(Cl)c2c(=O)n1-c1ccccc1 the IC50 (second compound 0.0316 µM) was 897 nM, the IC50 (second compound 0.1 µM) was 984 nM and the IC50 (second compound 0.316 µM) was 909 nM. For the same molecule, the IC50 (second compound 1 µM) was 699 nM, the IC50 (second compound 3.16 µM) was 822 nM and the IC50 (second compound 10 µM) was 725 nM. The viability, T/C (second compound 0.0316 µM, first compound 0.00949 µM) was 95.4%, the viability, T/C (second compound 0.0316 µM, first compound 0.03 µM) was 99.9% and the viability, T/C (second compound 0.0316 µM, first compound 0.0949 µM) was 86.3%. For the same molecule, the viability, T/C (second compound 0.0316 µM, first compound 0.3 µM) was 70.7%, the viability, T/C (second compound 0.0316 µM, first compound 0.949 µM) was 50.1% and the viability, T/C (second compound 0.0316 µM, first compound 3 µM) was 24.9%. The viability, T/C (second compound 0.1 µM, first compound 0.00949 µM) was 99.5%, the viability, T/C (second compound 0.1 µM, first compound 0.03 µM) was 88.6% and the viability, T/C (second compound 0.1 µM, first compound 0.0949 µM) was 82.2%. It also gave a viability, T/C (second compound 0.1 µM, first compound 0.3 µM) of 91.5%, a viability, T/C (second compound 0.1 µM, first compound 0.949 µM) of 50.9% and a viability, T/C (second compound 0.1 µM, first compound 3 µM) of 24.2%. For the same molecule, the viability, T/C (second compound 0.316 µM, first compound 0.00949 µM) was 100%, the viability, T/C (second compound 0.316 µM, first compound 0.03 µM) was 103% and the viability, T/C (second compound 0.316 µM, first compound 0.0949 µM) was 80.2%. For the same molecule, the viability, T/C (second compound 0.316 µM, first compound 0.3 µM) was 65%, the viability, T/C (second compound 0.316 µM, first compound 0.949 µM) was 57.2% and the viability, T/C (second compound 0.316 µM, first compound 3 µM) was 16%. The viability, T/C (second compound 1 µM, first compound 0.00949 µM) was 89.8%, the viability, T/C (second compound 1 µM, first compound 0.03 µM) was 78.4% and the viability, T/C (second compound 1 µM, first compound 0.0949 µM) was 77.3%. The viability, T/C (second compound 1 µM, first compound 0.3 µM) was 71.7%, the viability, T/C (second compound 1 µM, first compound 0.949 µM) was 41.9% and the viability, T/C (second compound 1 µM, first compound 3 µM) was 22.2%. For the same molecule, the viability, T/C (second compound 3.16 µM, first compound 0.00949 µM) was 92.8%, the viability, T/C (second compound 3.16 µM, first compound 0.03 µM) was 80.4% and the viability, T/C (second compound 3.16 µM, first compound 0.0949 µM) was 80.9%. The viability, T/C (second compound 3.16 µM, first compound 0.3 µM) was 57.9%, the viability, T/C (second compound 3.16 µM, first compound 0.949 µM) was 55.9% and the viability, T/C (second compound 3.16 µM, first compound 3 µM) was 15.5%. For the same molecule, the viability, T/C (second compound 10 µM, first compound 0.00949 µM) was 87.8%, the viability, T/C (second compound 10 µM, first compound 0.03 µM) was 85.6% and the viability, T/C (second compound 10 µM, first compound 0.0949 µM) was 70%. For the same molecule, the viability, T/C (second compound 10 µM, first compound 0.3 µM) was 76.4%, the viability, T/C (second compound 10 µM, first compound 0.949 µM) was 42% and the viability, T/C (second compound 10 µM, first compound 3 µM) was 14.1%.

`CC(=O)c1c(C)c2cnc(Nc3ccc(N4CCNCC4)cn3)nc2n(C2CCCC2)c1=O` + CC(Nc1ccc2c(c1)OCCn1cc(N3C(=O)OCC3C(F)F)nc1-2)C(N)=O showed an IC50 (second compound 0.00316 µM) of over 100 nM, an IC50 (second compound 0.01 µM) of over 100 nM and an IC50 (second compound 0.0316 µM) of over 100 nM. It also gave an IC50 (second compound 0.1 µM) of over 100 nM, an IC50 (second compound 0.316 µM) of over 100 nM and an IC50 (second compound 1 µM) of over 100 nM. The viability, T/C (second compound 0.00316 µM, first compound 0.000316 µM) was 113%, the viability, T/C (second compound 0.00316 µM, first compound 0.001 µM) was 103% and the viability, T/C (second compound 0.00316 µM, first compound 0.00316 µM) was 105%. For the same molecule, the viability, T/C (second compound 0.00316 µM, first compound 0.01 µM) was 97.2%, the viability, T/C [1] was 99.9% and the viability, T/C [2] was 95.7%. The viability, T/C (second compound 0.01 µM, first compound 0.000316 µM) was 109%, the viability, T/C (second compound 0.01 µM, first compound 0.001 µM) was 101% and the viability, T/C (second compound 0.01 µM, first compound 0.00316 µM) was 104%. The viability, T/C (second compound 0.01 µM, first compound 0.01 µM) was 91.2%, the viability, T/C [3] was 103% and the viability, T/C [4] was 92.8%. The viability, T/C (second compound 0.0316 µM, first compound 0.000316 µM) was 111%, the viability, T/C (second compound 0.0316 µM, first compound 0.001 µM) was 95.7% and the viability, T/C (second compound 0.0316 µM, first compound 0.00316 µM) was 103%. For the same molecule, the viability, T/C (second compound 0.0316 µM, first compound 0.01 µM) was 94.9%, the viability, T/C [5] was 100% and the viability, T/C [6] was 95.6%. The viability, T/C (second compound 0.1 µM, first compound 0.000316 µM) was 97.7%, the viability, T/C (second compound 0.1 µM, first compound 0.001 µM) was 100% and the viability, T/C (second compound 0.1 µM, first compound 0.00316 µM) was 92.7%. For the same molecule, the viability, T/C (second compound 0.1 µM, first compound 0.01 µM) was 94.8%, the viability, T/C [7] was 99.1% and the viability, T/C [8] was 103%. The viability, T/C (second compound 0.316 µM, first compound 0.000316 µM) was 94.3%, the viability, T/C (second compound 0.316 µM, first compound 0.001 µM) was 96.5% and the viability, T/C (second compound 0.316 µM, first compound 0.00316 µM) was 100%. It also gave a viability, T/C (second compound 0.316 µM, first compound 0.01 µM) of 93.3%, a viability, T/C [9] of 103% and a viability, T/C [10] of 91.4%. The viability, T/C (second compound 1 µM, first compound 0.000316 µM) was 89%, the viability, T/C (second compound 1 µM, first compound 0.001 µM) was 95.8% and the viability, T/C (second compound 1 µM, first compound 0.00316 µM) was 94.1%. The viability, T/C (second compound 1 µM, first compound 0.01 µM) was 95.2%, the viability, T/C [11] was 96.1% and the viability, T/C [12] was 82%.
